Data on 28 compounds can be found in ChEMBL document CHEMBL1153694, “Non-hinge-binding pyrazolo[1,5-a]pyrimidines as potent B-Raf kinase inhibitors” (Bioorg Med Chem Lett, 2009).

By IC50 is commonly meant the midpoint of a concentration-inhibition curve. The half-life is how long it takes for the measured level to halve. Read a high half-life as slow decline.

Data set [1] deals with Serine/threonine-protein kinase B-raf (Homo sapiens, UniProt P15056). Description: Inhibition of human recombinant B-Raf expressed in Sf9 cells.
Data set [2] in a line: Cytotoxicity against human HT-29 cells expressing B-Raf mutant.
The test system of data set [3] is WM-266-4 (Homo sapiens). Description: Cytotoxicity against human WM266.4 cells expressing B-Raf mutant.
Data set [4] can be described thus: in vitro. The conditions noted are these: rat, liver microsomes. For orientation: Liver microsomes are vesicles of endoplasmic reticulum, rich in cytochrome P450 enzymes.
Data set [5] has as its system WM-266-4 (Homo sapiens). Description: Cytotoxicity against human WM-266-4 cells expressing B-Raf mutant.
A short description of data set [6]: Inhibition of CAMK2.
For data set [7], the target named is Serine/threonine-protein kinase PLK1 (Homo sapiens, UniProt P53350). The data set is described as follows: Inhibition of PLK1.
Data set [8] deals with Cyclin-dependent kinase 2 (Homo sapiens, UniProt P24941). Description: Inhibition of CDK2.
The target in data set [9] is Phosphatidylinositol 4,5-bisphosphate 3-kinase catalytic subunit alpha isoform (Homo sapiens, UniProt P42336). Description: Inhibition of PI3Kalpha.
The target in data set [10] is Ribosomal protein S6 kinase beta-1 (Homo sapiens, UniProt P23443). The data set is described as follows: Inhibition of p70S6K.
The target in data set [11] is Mitogen-activated protein kinase 14 (Homo sapiens, UniProt Q16539). The data set is described as follows: Inhibition of p38alpha.
For data set [12], the target named is T1, Inhibitor of nuclear factor kappa-B kinase subunit beta (Homo sapiens, UniProt O14920).
T1 sequence (O14920 whole entry): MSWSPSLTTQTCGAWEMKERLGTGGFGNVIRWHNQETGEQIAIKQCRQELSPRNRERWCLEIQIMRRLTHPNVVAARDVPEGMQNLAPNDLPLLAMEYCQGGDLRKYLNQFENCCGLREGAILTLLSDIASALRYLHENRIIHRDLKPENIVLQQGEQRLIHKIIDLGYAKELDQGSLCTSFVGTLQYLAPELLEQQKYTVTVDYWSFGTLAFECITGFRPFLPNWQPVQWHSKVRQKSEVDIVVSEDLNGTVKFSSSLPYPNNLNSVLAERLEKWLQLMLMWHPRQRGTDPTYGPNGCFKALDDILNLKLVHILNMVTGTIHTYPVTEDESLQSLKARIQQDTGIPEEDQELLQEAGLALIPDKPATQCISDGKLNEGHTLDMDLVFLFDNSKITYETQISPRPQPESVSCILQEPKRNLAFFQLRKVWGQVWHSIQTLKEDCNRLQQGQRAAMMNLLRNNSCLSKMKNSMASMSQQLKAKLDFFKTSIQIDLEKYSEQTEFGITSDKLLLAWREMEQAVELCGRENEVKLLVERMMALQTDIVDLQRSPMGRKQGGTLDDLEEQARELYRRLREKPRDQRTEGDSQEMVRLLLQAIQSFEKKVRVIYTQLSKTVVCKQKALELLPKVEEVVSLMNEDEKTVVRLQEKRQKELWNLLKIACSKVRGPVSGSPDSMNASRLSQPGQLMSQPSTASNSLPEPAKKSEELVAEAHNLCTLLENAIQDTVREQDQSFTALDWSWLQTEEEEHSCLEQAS
The data set is described as follows: Inhibition of IKK-beta.

The target in data set [13] is T2, Dual specificity mitogen-activated protein kinase kinase 6 (Homo sapiens, UniProt P52564).
T2 sequence (P52564 whole entry): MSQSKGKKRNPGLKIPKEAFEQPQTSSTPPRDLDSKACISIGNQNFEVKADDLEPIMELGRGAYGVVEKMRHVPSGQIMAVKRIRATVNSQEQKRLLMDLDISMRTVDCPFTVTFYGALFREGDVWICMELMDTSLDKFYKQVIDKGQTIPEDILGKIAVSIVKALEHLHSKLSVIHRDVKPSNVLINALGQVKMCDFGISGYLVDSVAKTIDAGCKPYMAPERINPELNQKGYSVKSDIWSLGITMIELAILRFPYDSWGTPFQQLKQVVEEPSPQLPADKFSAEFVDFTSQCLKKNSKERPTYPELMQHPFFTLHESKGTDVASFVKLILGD
Description: Inhibition of MKK6.

Data set [14] addresses Protein kinase C alpha type (Homo sapiens, UniProt P17252). Description: Inhibition of PKCalpha.
Data set [15] deals with Proto-oncogene tyrosine-protein kinase Src (Homo sapiens, UniProt P12931). The data set is described as follows: Inhibition of SRC.
The target of data set [16] is MAP kinase-activated protein kinase 2 (Homo sapiens, UniProt P49137). Description: Inhibition of MK2.
The nature of data set [17]: Inhibition of PKA.
In data set [18] the target is Mitogen-activated protein kinase 8 (Homo sapiens, UniProt P45983). The data set is described as follows: Inhibition of JNK1.
Data set [19] has as its target Cyclin-dependent kinase 4 (Homo sapiens, UniProt P11802). Description: Inhibition of CDK4.

Bounds are passed on as bounds.

Serine/threonine-protein kinase B-raf, sequence (P15056 whole entry): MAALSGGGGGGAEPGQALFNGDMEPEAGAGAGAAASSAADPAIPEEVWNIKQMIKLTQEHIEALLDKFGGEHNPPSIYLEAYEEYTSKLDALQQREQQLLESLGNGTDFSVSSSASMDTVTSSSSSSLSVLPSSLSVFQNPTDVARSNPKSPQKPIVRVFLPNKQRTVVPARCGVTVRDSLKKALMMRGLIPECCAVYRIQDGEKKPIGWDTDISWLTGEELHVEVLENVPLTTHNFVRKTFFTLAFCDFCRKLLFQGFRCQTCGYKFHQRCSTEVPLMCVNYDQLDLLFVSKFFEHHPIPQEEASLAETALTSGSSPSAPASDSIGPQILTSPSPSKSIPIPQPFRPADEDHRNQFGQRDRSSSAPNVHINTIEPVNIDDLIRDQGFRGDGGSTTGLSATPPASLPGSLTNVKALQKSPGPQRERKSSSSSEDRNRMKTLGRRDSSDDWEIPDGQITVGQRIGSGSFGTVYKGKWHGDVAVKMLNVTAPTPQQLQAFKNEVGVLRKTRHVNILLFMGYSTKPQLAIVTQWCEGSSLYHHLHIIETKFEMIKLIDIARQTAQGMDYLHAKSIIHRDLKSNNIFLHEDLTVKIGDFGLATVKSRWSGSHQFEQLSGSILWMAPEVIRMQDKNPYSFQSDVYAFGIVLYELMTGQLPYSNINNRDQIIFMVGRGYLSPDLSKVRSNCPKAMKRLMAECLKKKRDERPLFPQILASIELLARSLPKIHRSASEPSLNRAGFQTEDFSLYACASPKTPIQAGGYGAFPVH
Proto-oncogene tyrosine-protein kinase Src, sequence (P12931 2-536 limits assumed): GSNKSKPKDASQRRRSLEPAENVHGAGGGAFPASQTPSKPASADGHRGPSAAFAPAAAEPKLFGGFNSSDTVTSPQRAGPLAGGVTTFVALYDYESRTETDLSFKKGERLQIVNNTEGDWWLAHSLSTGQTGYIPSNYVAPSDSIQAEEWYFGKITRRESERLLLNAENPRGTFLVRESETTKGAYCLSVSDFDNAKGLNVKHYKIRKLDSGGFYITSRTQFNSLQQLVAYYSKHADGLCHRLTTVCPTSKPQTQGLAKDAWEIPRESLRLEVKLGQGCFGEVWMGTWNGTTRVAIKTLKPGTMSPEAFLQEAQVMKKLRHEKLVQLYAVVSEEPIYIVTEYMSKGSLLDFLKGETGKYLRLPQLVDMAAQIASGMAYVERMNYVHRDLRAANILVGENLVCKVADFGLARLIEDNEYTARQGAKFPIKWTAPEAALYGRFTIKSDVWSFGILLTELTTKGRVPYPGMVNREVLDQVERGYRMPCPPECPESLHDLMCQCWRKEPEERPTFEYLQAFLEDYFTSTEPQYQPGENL
Mitogen-activated protein kinase 14, sequence (Q16539 whole entry): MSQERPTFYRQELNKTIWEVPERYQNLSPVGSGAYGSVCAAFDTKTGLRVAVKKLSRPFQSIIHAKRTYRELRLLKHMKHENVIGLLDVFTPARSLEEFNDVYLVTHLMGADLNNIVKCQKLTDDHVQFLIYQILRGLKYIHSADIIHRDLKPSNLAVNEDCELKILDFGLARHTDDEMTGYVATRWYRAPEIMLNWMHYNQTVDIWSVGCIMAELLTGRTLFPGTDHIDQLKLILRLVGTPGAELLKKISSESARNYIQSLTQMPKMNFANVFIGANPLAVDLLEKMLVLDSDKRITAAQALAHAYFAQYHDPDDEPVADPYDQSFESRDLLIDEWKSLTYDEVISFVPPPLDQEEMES
Serine/threonine-protein kinase PLK1, sequence (P53350 whole entry): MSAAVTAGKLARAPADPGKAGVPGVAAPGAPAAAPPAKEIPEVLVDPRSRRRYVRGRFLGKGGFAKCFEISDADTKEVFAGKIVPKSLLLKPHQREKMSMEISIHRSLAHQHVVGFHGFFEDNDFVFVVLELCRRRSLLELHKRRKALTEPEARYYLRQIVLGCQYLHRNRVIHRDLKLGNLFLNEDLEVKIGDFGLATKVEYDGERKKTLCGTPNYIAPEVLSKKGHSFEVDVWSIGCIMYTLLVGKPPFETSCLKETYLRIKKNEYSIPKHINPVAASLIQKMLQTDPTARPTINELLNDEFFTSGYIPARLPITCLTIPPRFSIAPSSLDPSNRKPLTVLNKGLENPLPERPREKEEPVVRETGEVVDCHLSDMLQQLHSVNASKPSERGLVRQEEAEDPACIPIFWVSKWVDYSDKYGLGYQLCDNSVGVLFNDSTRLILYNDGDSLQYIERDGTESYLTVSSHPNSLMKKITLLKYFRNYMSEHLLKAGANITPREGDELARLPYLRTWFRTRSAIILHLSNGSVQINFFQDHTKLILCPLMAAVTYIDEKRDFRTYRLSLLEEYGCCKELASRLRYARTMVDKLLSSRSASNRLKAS
Cyclin-dependent kinase 4, sequence (P11802 whole entry): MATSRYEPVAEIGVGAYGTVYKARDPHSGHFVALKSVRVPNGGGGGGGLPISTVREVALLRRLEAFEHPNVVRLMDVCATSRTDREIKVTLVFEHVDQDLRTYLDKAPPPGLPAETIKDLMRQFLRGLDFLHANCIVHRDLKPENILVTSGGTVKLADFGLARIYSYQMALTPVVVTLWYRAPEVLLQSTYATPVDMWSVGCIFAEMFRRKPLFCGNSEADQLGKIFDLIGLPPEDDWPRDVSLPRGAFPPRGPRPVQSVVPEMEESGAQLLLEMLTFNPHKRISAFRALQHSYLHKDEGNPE
Ribosomal protein S6 kinase beta-1, sequence (P23443 whole entry): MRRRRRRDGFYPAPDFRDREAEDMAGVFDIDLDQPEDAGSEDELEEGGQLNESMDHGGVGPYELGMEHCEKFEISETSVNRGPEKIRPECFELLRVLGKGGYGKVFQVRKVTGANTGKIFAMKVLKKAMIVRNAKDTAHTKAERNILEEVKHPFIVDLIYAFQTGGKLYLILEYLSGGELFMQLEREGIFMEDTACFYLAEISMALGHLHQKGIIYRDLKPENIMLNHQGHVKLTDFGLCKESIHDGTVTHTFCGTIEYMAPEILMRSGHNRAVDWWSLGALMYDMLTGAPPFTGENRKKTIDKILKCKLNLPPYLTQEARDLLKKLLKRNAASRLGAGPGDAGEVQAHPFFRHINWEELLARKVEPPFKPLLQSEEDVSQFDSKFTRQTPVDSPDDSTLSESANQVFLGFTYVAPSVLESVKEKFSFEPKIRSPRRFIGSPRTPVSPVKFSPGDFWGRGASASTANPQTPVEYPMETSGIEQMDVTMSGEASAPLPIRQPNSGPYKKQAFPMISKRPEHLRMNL
MAP kinase-activated protein kinase 2, sequence (P49137 whole entry): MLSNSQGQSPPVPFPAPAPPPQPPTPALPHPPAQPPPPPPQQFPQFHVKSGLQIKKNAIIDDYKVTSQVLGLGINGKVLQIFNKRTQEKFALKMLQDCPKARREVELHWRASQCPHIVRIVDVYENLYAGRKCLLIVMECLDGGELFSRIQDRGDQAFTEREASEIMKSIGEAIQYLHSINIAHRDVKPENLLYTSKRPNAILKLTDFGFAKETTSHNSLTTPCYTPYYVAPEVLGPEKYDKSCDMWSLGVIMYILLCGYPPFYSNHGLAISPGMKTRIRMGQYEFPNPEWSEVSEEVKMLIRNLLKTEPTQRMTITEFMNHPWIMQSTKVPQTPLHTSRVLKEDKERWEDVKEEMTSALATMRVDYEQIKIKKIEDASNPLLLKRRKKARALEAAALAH
Mitogen-activated protein kinase 8, sequence (P45983 whole entry): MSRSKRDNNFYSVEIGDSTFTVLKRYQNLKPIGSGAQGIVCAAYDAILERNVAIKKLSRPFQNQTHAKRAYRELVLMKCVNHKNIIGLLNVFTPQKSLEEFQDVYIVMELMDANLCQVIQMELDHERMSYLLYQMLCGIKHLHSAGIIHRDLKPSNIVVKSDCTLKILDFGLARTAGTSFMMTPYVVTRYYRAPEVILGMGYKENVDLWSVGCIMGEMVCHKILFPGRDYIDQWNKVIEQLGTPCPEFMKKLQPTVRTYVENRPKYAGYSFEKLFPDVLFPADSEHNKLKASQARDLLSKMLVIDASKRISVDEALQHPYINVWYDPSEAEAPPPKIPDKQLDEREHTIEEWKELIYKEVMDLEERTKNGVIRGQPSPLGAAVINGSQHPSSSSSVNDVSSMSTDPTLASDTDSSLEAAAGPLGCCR

Consider `CN1CCN(c2ccc(-c3cnn4c(-c5cc(NC(=O)c6cccc(C(F)(F)F)c6)ccc5F)ccnc34)cn2)CC1`, for which the IC50 in data set [1] was 30 nM; in data set [2] it was 630 nM.
Consider `COCCOCC(=O)Nc1ccc(-c2cnn3c(-c4cccc(NC(=O)c5cccc(C(F)(F)F)c5)c4)ccnc23)cc1`, for which the concentration for half-maximal inhibition (IC50) was 139 nM in data set [1], 3900 nM in data set [2] and more than 10 µM in data set [3].
Take `CN(C)CC(=O)Nc1ccc(-c2cnn3c(-c4cccc(NC(=O)c5cccc(C(F)(F)F)c5)c4)ccnc23)cc1`: the 50% inhibitory concentration (IC50) in data set [1] amounted to 34 nM; in data set [2], 770 nM.
`CN(C)CC(=O)Nc1cccc(-c2cnn3c(-c4cccc(NC(=O)c5cccc(C(F)(F)F)c5)c4)ccnc23)c1` registered a concentration for half-maximal inhibition (IC50) in data set [2] of 800 nM.
With `CN1CCN(Cc2ccc(-c3cnn4c(-c5cccc(NC(=O)c6cccc(C(F)(F)F)c6)c5)ccnc34)cc2)CC1`, the half-maximal inhibitory concentration (IC50) in data set [1] was found to be 38 nM; in [2], 700 nM. The compound also showed a half-life in data set [4] of 3 min.
As for `CN1CCN(c2ccc(-c3cnn4c(-c5cccc(NC(=O)c6cccc(C(F)(F)F)c6)c5)ccnc34)cn2)CC1`, the IC50 in data set [1] is 44 nM; in data set [2], 310 nM.
As for `CCN1CCN(Cc2cc(-c3cnn4c(-c5cccc(NC(=O)c6cccc(C(F)(F)F)c6)c5)ccnc34)co2)CC1`, the half-inhibitory concentration (IC50) in data set [1] worked out at 219 nM; in data set [2], 1700 nM; in [3], 2.9 µM.
For `CN1CCN(CCCC#Cc2cnn3c(-c4cccc(NC(=O)c5cccc(C(F)(F)F)c5)c4)ccnc23)CC1`, the IC50 is 2600 nM in data set [2] and 1.4 µM in data set [3]. In data set [4], this compound showed a half-life of 3 min.
On to `CN(C)c1ccc(-c2cnn3c(-c4cccc(NC(=O)c5cccc(C(F)(F)F)c5)c4)ccnc23)cc1`, for which the values for the IC50 in data set [1] and in data set [3] were 308 nM and more than 10 µM, respectively.
For `COc1ccc(NC(=O)c2cccc(C(F)(F)F)c2)cc1-c1ccnc2c(-c3cn[nH]c3)cnn12`, the IC50 in data set [1] stood at 98 nM; in [2], 2900 nM.
In the same order, the values of `O=C(Nc1ccc(F)c(-c2ccnc3c(-c4cn[nH]c4)cnn23)c1)c1cccc(C(F)(F)F)c1` are 18 nM and 2800 nM.
Regarding `O=C(Nc1ccc(Cl)c(-c2ccnc3c(-c4cn[nH]c4)cnn23)c1)c1cccc(C(F)(F)F)c1`, the IC50 in data set [1] was found to be 42 nM; in data set [2] it was 2900 nM.
Consider `O=C(Nc1cccc(-c2ccnc3c(C#CCCCN4CCOCC4)cnn23)c1)c1cccc(C(F)(F)F)c1`, for which the IC50 in data set [2] amounted to 3500 nM; in [3], 5.5 µM. In data set [4], this compound showed a half-life of more than 30 min.
For `O=C(Nc1cccc(-c2ccnc3c(-c4cn[nH]c4)cnn23)c1)c1cccc(C(F)(F)F)c1`, the IC50 in [2] was 2800 nM.
For `O=C(Nc1cccc(-c2ccnc3c(-c4cnn(CCN5CCCC5)c4)cnn23)c1)c1cccc(C(F)(F)F)c1`, the concentration for half-maximal inhibition (IC50) in data set [2] amounted to 2800 nM; in data set [3], 3.3 µM. This compound also showed a half-life in data set [4] of 26 min.
For `O=C(Nc1cccc(-c2ccnc3c(-c4coc(CN5CCCC5)c4)cnn23)c1)c1cccc(C(F)(F)F)c1`, the IC50 in data set [2] was found to be 2200 nM; in data set [3] it was 3.2 µM.
Regarding `NC(=O)c1cccc(-c2cnn3c(-c4cccc(NC(=O)c5cccc(C(F)(F)F)c5)c4)ccnc23)c1`, the half-inhibitory concentration (IC50) in data set [5] was 3.7 µM; in data set [2], 3200 nM.
Regarding `CN(C)Cc1ccc(-c2cnn3c(-c4cccc(NC(=O)c5cccc(C(F)(F)F)c5)c4)ccnc23)cc1`, the IC50 in [6] is 822 nM; in data set [7], more than 2000 nM; in data set [8], more than 2000 nM; in data set [9], more than 2000 nM; in data set [2], 780 nM; in [10], more than 2000 nM. The IC50 was 216 nM in data set [11]; more than 2000 nM in data set [12]; more than 2000 nM in data set [13]; more than 2000 nM in data set [14]; more than 2000 nM in data set [15]; more than 2000 nM in data set [16]. Besides, the IC50 in data set [17], in [18] and in data set [19] was more than 2000 nM throughout. Further, the half-life in data set [4] turned out to be 6 min.
In the case of `O=C(Nc1cccc(-c2ccnc3c(-c4ccc(CN5CCCC5)cc4)cnn23)c1)c1cccc(C(F)(F)F)c1`, the 50% inhibitory concentration (IC50) in data set [1] is 20 nM; in data set [2], 650 nM. Besides, the half-life in [4] is 27 min.
`O=C(Nc1cccc(-c2ccnc3c(-c4cccnc4)cnn23)c1)c1cccc(C(F)(F)F)c1`: the 50% inhibitory concentration (IC50) in data set [1] was 113 nM.
Consider `Nc1ccc(-c2cnn3c(-c4cccc(NC(=O)c5cccc(C(F)(F)F)c5)c4)ccnc23)cn1`, for which the IC50 in [2] came to 2400 nM; in data set [3], 3.4 µM.
Regarding `CN(C)CCNc1ccc(-c2cnn3c(-c4cccc(NC(=O)c5cccc(C(F)(F)F)c5)c4)ccnc23)cn1`, in [2], the half-maximal inhibitory concentration (IC50) turned out to be 460 nM.
For `CN(C)CCc1ccc(-c2cnn3c(-c4cccc(NC(=O)c5cccc(C(F)(F)F)c5)c4)ccnc23)cc1`, the values for the half-inhibitory concentration (IC50) in data set [2] and in [3] were 730 nM and 0.74 µM, respectively.
For `CN(C)Cc1ccccc1-c1cnn2c(-c3cccc(NC(=O)c4cccc(C(F)(F)F)c4)c3)ccnc12` the same measures were 2900 nM and 2.9 µM.
As for `CN(C)Cc1cccc(-c2cnn3c(-c4cccc(NC(=O)c5cccc(C(F)(F)F)c5)c4)ccnc23)c1`, in data set [2], the concentration for half-maximal inhibition (IC50) stood at 800 nM.
Turning to `O=C(Nc1cccc(-c2ccnc3c(-c4cnc(N5CCOCC5)nc4)cnn23)c1)c1cccc(C(F)(F)F)c1`, the half-inhibitory concentration (IC50) in [1] is 941 nM.
As for `CN(C)CCc1ccccc1-c1cnn2c(-c3cccc(NC(=O)c4cccc(C(F)(F)F)c4)c3)ccnc12`, it took 840 nM to reach half-maximal inhibition in data set [2] (IC50).
On the same count and under the same terms, for `CN(C)CCc1cccc(-c2cnn3c(-c4cccc(NC(=O)c5cccc(C(F)(F)F)c5)c4)ccnc23)c1` the value was 650 nM.
